# Measured values: patent US20150374709A1, “TETRA-SUBSTITUTED NDGA DERIVATIVES VIA ETHER BONDS AND CARBAMATE BONDS AND THEIR SYNTHESIS AND PHARMACEUTICAL USE” (ERIMOS PHARMACEUTICALS LLC, priority 2006, published 2015)
# Key:
# COS-7 cells = assay: MTT cytotoxicity assay in COS-7 cells (run with SEAP); type: cell-based, green monkey; settings: Chlorocebus sabaeus, COS-7 test cells of the SEAP assay
# Description: The MTT assay is a colorimetric method for determining the number of viable cells. Metabolically active cells turn the MIT reagent, (3-(4,5-dimethylthiazol-2-yl)-2,5-diphenyltetrazolium bromide, into purple-colored formazan crystals that are solubilized in dimethyl sulfoxide (DMSO). The MTT reagent is added to MTT (colorless) media. The media is added to the cells and they are incubated for 4 hours. DMSO is added to the cells and mixed. The colored solutions are then read at 540 nm and corrected at 630 nm. The IC50 is estimated by graphing the gathered data.
# The cells are analyzed by the MTT assay to compare cytotoxicity to SEAP inhibition. The goal is for the drug to inhibit SEAP without being too toxic.
# The MTT assay measures cellular-proliferation and is used to verify that the levels of SEAP activity are not solely due to cytotoxicity. These assays was used in screening for potential drug compound leads as antiviral agents, and particularly, anti-HIV candidates.
# A549 (lung carcinoma) = assay: MTS cell viability assay, A549; type: cell-based; settings: Homo sapiens, A549; MTS assay; read-out: A549 IC50
# Excerpt: (§1) Studies performed regarding cytotoxicity included the well-known MTS, Trypan Blue and MTT protocols. The MTS studies were done using the CellTiter 96®AQueous One Solution Cell Proliferation Assay (Promega Corporation, Madison, Wis. USA). Metabolically active, namely viable, cells turn MTS, a tetrazolium compound (3-(4,5-dimethylthiazol-2-yl)-5-(3-carboxymethoxyphenyl)-2-(4-sulfophenyl)-2H-tetrazolium, inner salt) into colored formazan, which is soluble in tissue culture medium. The measurement of the absorbance of the formazan is read at 490 nm. The ready to use reagent is added directly to the cells in media in 96-well plates, incubated 1-4 hours and the results are recorded by the plate reader. The IC50 is estimated by graphing the gathered data. The IC50 is the concentration of the tested material that inhibits 50% of growth or viability of the tested material compared to a control.
# (§2) Three cell lines obtained from ATCC and maintained as directed by ATCC were tested: HeLa (cervical adenocarcinoma), A549 (lung carcinoma), and COS-7 (SV40 transformed monkey kidney). Studies of these cell lines are considered to be indicative of the effect of tested substances on mammalian, including human, diseases.
# (§3) All compounds were dissolved in DMSO and DMSO is used as the placebo. The samples were first dissolved into 10 mM dilutions in DMSO and then diluted further to 5, 1, 0.5, 0.1, 0.05, and 0.01 mM solutions. These solutions were added to the media at a 1% concentration (1 μl to 100 μl media) to treat the cells with 100, 50, 10, 5, 1, 0.5, and 0.1 μM of the compound. […] Solutions were checked before use for precipitation, especially the 10 mM solutions. If there was precipitation, they were warmed 65° C. and added to warmed media.
# (§4) Wells on a 96-well plate were seeded with 1.5-8×10^4 cells in 100 μl media and incubated overnight. The outside wells of the plate were filled with 200 μl sterile, deionized (DI) water to curb media evaporation. After 24 hours, test chemicals were prepared in media at a concentration of 1% media volume. The test sample media were added, mixing with pipette before adding 100 μl per well. Media was added to the “Media Only” wells. The well plate and its contents were incubated for 24-72 hours, depending on the study conducted. On the thy of the MTS assay, the MTS reagent was removed from the refrigerator and brought to room temperature. Using the multichannel pipette, 20 μl of the MTS reagent was added to each well and incubated for one to four hours. The plate was read at 490 nm with a reference wavelength of 690 nm after one hour in the incubator thereafter until the blank wells were at about 0.2 OD. The results were then scanned into a Microsoft® Excel® template designed to perform all necessary calculations whim data are entered. The data were checked for statistical errors; data points that are within 10% of the mean of the data points for that group were included. The average of the blanks (“Media Only”) were subtracted and the data were inserted into a chart that represents growth response, treated/untreated.
# [1] = tested on: HeLa (cervical adenocarcinoma); assay: MTS cell viability assay, HeLa; type: cell-based; settings: Homo sapiens, HeLa, MTS assay; read-out: HeLa IC50
# Excerpt: as §1, §2, §3, §4
# [2] = tested on: Ovarian Cancer cell lines; assay: NCI DTP human tumor cell line screen, ovarian cancer panel; type: cell-based; settings: Ovarian Cancer (6 cell lines)
# Excerpt: (§5) The United States National Cancer Institute (NCI) provides a developmental therapeutics program (DTP) (http://dtp.nci.nih.gov/branches/btb/ivelsp.html) to screen submitted substances in support of cancer drug discovery. The In Vitro Cell Line Screening Project (IVCLSP) is a dedicated service providing direct support to the DTP anticancer drug discovery program and is designed to screen up to 3,000 compounds per year for potential anticancer activity. The operation of this screen utilizes 60 different human tumor cell lines, representing leukemia, melanoma and cancers of the lung, colon, brain, ovary, breast, prostate, and kidney. The aim is to prioritize for farther evaluation, synthetic compounds or natural product samples showing selective growth inhibition or cell killing of particular tumor cell lines. This screen is unique in that the complexity of a 60 cell line dose response produced by a given compound results in a biological response pattern which can be utilized in pattern recognition algorithms (COMPARE program. See: http://dtp.nci.nih.gov/docs/compare/compare.html). Using these algorithms, it is possible to assign a putative mechanism of action to a test compound, or to determine that the response pattern is unique and not similar to that of any of the standard prototype compounds included in the NCI database. […]
# CNS cell lines = assay: NCI DTP human tumor cell line screen, CNS panel; type: cell-based; settings: CNS (6 cell lines)
# Excerpt: as §5
smiles,measurement,setting,value
"C[C@H](Cc1ccc(OCCCN2CCCCC2)c(OCCCN2CCCCC2)c1)[C@@H](C)Cc1ccc(OCCCN2CCCCC2)c(OCCCN2CCCCC2)c1 [Compound A, 1,4-bis{3,4-bis[3-(piperidin-1-yl)propoxy]phenyl}-2,3-dimethyl-(2R,3S)-butane]",IC50,COS-7 cells,700 to 900 nM
same,IC50,A549 (lung carcinoma),800 to 900 nM
same,IC50,[1],2000 to 3000 nM
same,Mean Growth Percent at 10 μM,[2],−85.89%
same,Mean Growth Percent at 10 μM,CNS cell lines,−93.97%
